Source: BigSolDB 2.1

O=C(O)c1cccc(C(=O)O)c1
Details	solubility (mole fraction)
in ethanol, 294.35 K	0.004
in ethanol, 296.95 K	0.0042
in ethanol, 298.15 K	0.0043
in ethanol, 300.55 K	0.0047
in ethanol, 306.15 K	0.0051
in ethanol, 308.85 K	0.0053
in ethanol, 310.85 K	0.0056
in ethanol, 313.65 K	0.0063
in ethanol, 318.35 K	0.0068
in ethanol, 320.45 K	0.0072
in ethanol, 324.15 K	0.0075
in ethanol, 326.75 K	0.0078
in ethanol, 330.85 K	0.0085
in ethanol, 331.75 K	0.0089
in ethanol, 335.05 K	0.0093
in isobutanol, 318.65 K	0.0025
in isobutanol, 323.55 K	0.0033
in isobutanol, 327.85 K	0.004
in isobutanol, 331.05 K	0.0047
in isobutanol, 336.15 K	0.0055
in isobutanol, 340.05 K	0.0061
in isobutanol, 343.05 K	0.0066
in isobutanol, 346.65 K	0.0072
in isobutanol, 348.95 K	0.0079
in isobutanol, 351.05 K	0.0085
in isobutanol, 355.05 K	0.0092
in isobutanol, 356.05 K	0.0098
in isobutanol, 360.75 K	0.0108
in isopropanol, 304.65 K	0.0046
in isopropanol, 308.45 K	0.0052
in isopropanol, 310.95 K	0.0057
in isopropanol, 316.45 K	0.0063
in isopropanol, 319.45 K	0.0068
in isopropanol, 322.15 K	0.0075
in isopropanol, 324.85 K	0.0081
in isopropanol, 326.95 K	0.0086
in isopropanol, 331.35 K	0.0095
in isopropanol, 334.35 K	0.0103
in isopropanol, 337.55 K	0.0111
in isopropanol, 342.25 K	0.012
in isopropanol, 344.25 K	0.0126
in methanol, 288.35 K	0.0029
in methanol, 292.45 K	0.0031
in methanol, 295.65 K	0.0032
in methanol, 298.65 K	0.0035
in methanol, 299.65 K	0.0036
in methanol, 302.15 K	0.004
in methanol, 305.25 K	0.0044
in methanol, 308.45 K	0.0047
in methanol, 311.85 K	0.0049
in methanol, 313.45 K	0.0051
in methanol, 316.65 K	0.0056
in methanol, 319.25 K	0.0056
in methanol, 320.15 K	0.006
in methanol, 323.15 K	0.0064
in methanol, 326.05 K	0.0068
in methanol, 328.15 K	0.0072
in n-butanol, 309.65 K	0.0039
in n-butanol, 314.35 K	0.0044
in n-butanol, 319.95 K	0.0052
in n-butanol, 324.45 K	0.0057
in n-butanol, 328.05 K	0.0062
in n-butanol, 332.15 K	0.007
in n-butanol, 335.25 K	0.0076
in n-butanol, 338.05 K	0.0081
in n-butanol, 340.95 K	0.0091
in n-butanol, 345.45 K	0.0099
in n-butanol, 347.95 K	0.0104
in n-propanol, 303.75 K	0.0033
in n-propanol, 305.65 K	0.0039
in n-propanol, 311.65 K	0.0043
in n-propanol, 315.35 K	0.0049
in n-propanol, 318.85 K	0.0054
in n-propanol, 322.55 K	0.0059
in n-propanol, 326.65 K	0.0064
in n-propanol, 330.45 K	0.007
in n-propanol, 337.95 K	0.0091
in n-propanol, 340.15 K	0.0093
in n-propanol, 341.95 K	0.01
in n-propanol, 345.95 K	0.0113
in n-propanol, 348.15 K	0.0122
in sec-butanol, 302.45 K	0.0025
in sec-butanol, 306.35 K	0.0033
in sec-butanol, 309.25 K	0.004
in sec-butanol, 314.15 K	0.0049
in sec-butanol, 317.65 K	0.0057
in sec-butanol, 322.15 K	0.0071
in sec-butanol, 326.25 K	0.0085
in sec-butanol, 331.35 K	0.0098
in sec-butanol, 339.35 K	0.0117
in sec-butanol, 342.35 K	0.0126
in tert-butanol, 303.65 K	0.0026
in tert-butanol, 307.95 K	0.0038
in tert-butanol, 312.15 K	0.0047
in tert-butanol, 315.35 K	0.0059
in tert-butanol, 318.35 K	0.0073
in tert-butanol, 321.15 K	0.0091
in tert-butanol, 324.55 K	0.0106
in tert-butanol, 328.75 K	0.0125
in tert-butanol, 331.65 K	0.0141
in tert-butanol, 334.95 K	0.016
in tert-butanol, 338.45 K	0.0177
in tert-butanol, 342.65 K	0.0194
in tert-butanol, 345.65 K	0.0203
